The text below walks through data of patent US8158656B2, “2-indolinone derivatives as multi-target protein kinase inhibitors and histone deacetylase inhibitors” (Shenzhen Chipscreen Biosciences Ltd., priority 2008, dated 2012).

The target in one assay is T1, Flt3 (Homo sapiens, UniProt P36888).
T1 construct: purchased Cell Signaling
T1 sequence (P36888 27-993): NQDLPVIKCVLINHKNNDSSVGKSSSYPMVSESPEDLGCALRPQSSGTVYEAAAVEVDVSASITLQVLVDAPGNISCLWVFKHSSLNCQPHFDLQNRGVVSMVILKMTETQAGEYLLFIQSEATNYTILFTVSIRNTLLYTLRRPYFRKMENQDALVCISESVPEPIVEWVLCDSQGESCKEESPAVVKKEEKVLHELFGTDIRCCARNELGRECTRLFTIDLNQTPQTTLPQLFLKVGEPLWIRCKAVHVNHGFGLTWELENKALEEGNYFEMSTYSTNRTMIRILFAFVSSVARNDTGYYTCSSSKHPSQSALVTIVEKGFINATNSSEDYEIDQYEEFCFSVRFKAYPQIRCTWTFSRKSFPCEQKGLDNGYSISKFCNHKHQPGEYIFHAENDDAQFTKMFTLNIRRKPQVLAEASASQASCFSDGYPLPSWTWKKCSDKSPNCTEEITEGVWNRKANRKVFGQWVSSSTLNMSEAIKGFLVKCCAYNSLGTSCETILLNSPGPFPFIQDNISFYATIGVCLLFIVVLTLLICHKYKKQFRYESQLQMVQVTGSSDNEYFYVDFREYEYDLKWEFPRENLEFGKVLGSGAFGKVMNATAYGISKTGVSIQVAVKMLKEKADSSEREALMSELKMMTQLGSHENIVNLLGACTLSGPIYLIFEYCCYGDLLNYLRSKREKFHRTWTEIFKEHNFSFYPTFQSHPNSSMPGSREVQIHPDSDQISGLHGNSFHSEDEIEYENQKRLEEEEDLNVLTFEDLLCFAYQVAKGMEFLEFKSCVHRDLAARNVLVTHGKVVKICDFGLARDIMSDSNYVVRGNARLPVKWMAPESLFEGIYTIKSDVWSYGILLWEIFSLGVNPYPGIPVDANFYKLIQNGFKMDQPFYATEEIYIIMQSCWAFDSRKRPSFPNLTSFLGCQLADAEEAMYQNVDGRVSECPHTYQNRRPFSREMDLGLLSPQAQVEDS
The experiment in a line: Flt3 kinase ELISA bioassay. The note with it: ELISA kinase assay, 200 μM ATP. Type of assay: biochemical. Here is the method: This assay is used to measure in vitro kinase activity of Flt3 in an ELISA assay.
• 1. Streptavidin coated, 96-well, white plate • 2. Phospho-Tyrosine Monoclonal Antibody (P-Tyr-100) (Cell Signaling) • 3. HRP-labeled anti-mouse IgG (Upstate) • 4. HTScan™ Tyrosine Kinase Buffer (4×) • 5. DTT (1000×. 1.25 M) • 6. ATP (10 mM) • 7. KDR (Tyr996) Biotinylated Peptide Substrate (Cell Signaling) • 8. Flt3 Kinase (recombinant, human) (Cell Signaling) • 9. Wash Buffer: 1× PBS, 0.05% Tween-20 (PBS/T) • 10. Bovine Serum Albumin (BSA) • 11. Stop Buffer: 50 mM EDTA pH 8 • 12. Enhanced chemiluminescence (ECL) (Amersham) Procedure for performing the assay in 96-well plate: • 1. Add 10 μl 10 mM ATP to 1.25 ml 6 μM substrate peptide. Dilute the mixture with dH20 to 2.5 ml to make 2× ATP/substrate cocktail ([ATP]=[…], [substrate]=3 μm). • 2. Immediately transfer enzyme from −80° C. to ice. Allow enzyme to thaw on ice. • 3. Microcentrifuge briefly at 4° C. to bring liquid to the bottom of the vial. Return immediately to ice. • 4. Add 10 μl of DTT (1.25 M) to 2.5 ml of 4× HTScan™ Tyrosine Kinase Buffer (240 mM HEPES pH 7.5, 20 mM MgCl2, 20 mM MnCl2, 12 μM Na3VO4) to make DTT/Kinase buffer. • 5. Transfer 1.25 ml of DTT/Kinase buffer to enzyme tube to make 4× reaction cocktail ([enzyme]=4 ng/μL in 4× reaction cocktail). • 6. Incubate 12.5 μl of the 4× reaction cocktail with 12.5 μl/well of prediluted compound of interest (usually around 10 μM) for 5 minutes at room temperature. • 7. Add 25 μl of 2× ATP/substrate cocktail to 25 μl/well preincubated reaction cocktail/compound. Final Assay Conditions for a 50 μl Reaction: • 60 mM HEPES pH 7.5 • 5 mM MgCl2 • 5 mM MnCl2 • 3 μM Na3VO4 • 1.25 mM DTT • […] • 1.5 μM peptide • 10 units Flt3 Kinase • 8. Incubate reaction plate at room temperature for 30 minutes. • 9. Add 50 μl/well Stop Buffer (50 mM EDTA, pH 8) to stop the reaction. • 10. Transfer 50 μl of each reaction and 50 μl dH2O/well to a 96-well streptavidincoated plate and incubate at room temperature for 60 minutes. • 11. Wash three times with 200 μl/well PBS/T • 12. Dilute primary antibody, Phospho-Tyrosine Monoclonal Antibody (P-Tyr-100), 1:1000 in PBS/T with 1% BSA. Add 100 μl/well of primary antibody. • 13. Incubate at room temperature for 60 minutes. • 14. Wash three times with 200 μl/well PBS/T • 15. Dilute HRP labeled anti-mouse IgG 1:500 in PBS/T with 1% BSA. Add 100 μl/well diluted antibody. • 16. Incubate at room temperature for 30 minutes. • 17. Wash five times with 200 μl/well PBS/T. • 18. Add 100 μl/well ECL Solution. • 19. Detect luminescence with appropriate Plate Reader.
A general note: An ELISA detects its analyte on a solid surface through an enzyme-linked reagent.

In a further assay the test system is Raji. In words: Tumor cell proliferation (MTS), Raji. The note with it: Homo sapiens, 72 hours. Type of assay: cell-based. On the procedure:
(§1) Measurement of in vivo cell proliferation:
(§2) Tumor cells were trypsinized and plated into 96-well plates at 3,000 per well and incubated in complete medium with 10% FBS for 24 hours. Compounds were added over a final concentration range of 100 μmol/L to 100 nmol/L in 0.1% DMSO and incubated for 72 hours in complete medium. The effects on proliferation were determined by addition of MTS reagent (Promega) according to the instruction, incubation for 2 hours at 37° C. in CO2 incubator, and record the absorbance at 490 nm using an ELISA plate reader.

For a further assay, the system named is Ramos. The experiment in a line: Tumor cell proliferation (MTS), Ramos. Type of assay: cell-based. To be noted: Homo sapiens, 72 hours. On the procedure: as §1, §2
Assay [1] concerns Mo7e cells (SCF dependent). In words: c-Kit ligand (SCF) dependent cell proliferation. Type of assay: cell-based. To be noted: SCF 50 ng/ml, 72 hours, MTS. Here is the method:
SCF dependent cell proliferation:
Mo7e cells (SCF dependent) were plated into 96-well plates at 15000 per well and incubated in 1640 medium with 10% FBS and SCF (50 ng/ml) for 24 hours. Compounds were added and incubated for 72 hours at 37° C. in CO2 incubator. The effects on proliferation were determined by addition of MTS reagent (Promega) according to the instruction, incubation for 2 hours at 37° C. in CO2 incubator, and record the absorbance at 490 nm using an ELISA plate reader.

Each structure is given as a SMILES string.

As a reminder, the IC50 is the concentration that gives 50% inhibition. A higher IC50 goes with lower potency. As usually defined, the GI50 is the concentration at which growth is held to half of that of the control. The compound `Cc1[nH]c(/C=C2\C(=O)Nc3ccc(F)cc32)c(C)c1C(=O)NCCCNc1ccc(C(=O)Nc2ccccc2N)cn1` [Example 6, (Z)-N-(2-aminophenyl)-6-(3-(2-((5-fluoro-2-oxoindolin-3-ylidene)methyl)-3,5-dimethyl-1H-pyrrole-4-carboxamido)propylamino)nicotinamide] returned a 50% inhibitory concentration (IC50) at Flt3 of 132 nM. For the same compound, the results for the GI50 (in the assay with Raji; with Ramos; in assay [1]) were 3.45 µM, over 60 µM and 46 nM, respectively.
In the same order, the values of `Cc1[nH]c(/C=C2\C(=O)Nc3ccc(F)cc32)c(C)c1C(=O)NCCNc1ccc(C(=O)Nc2ccc(F)cc2N)cn1` [Example 13, (Z)-N-(2-amino-4-fluorophenyl)-6-(2-(2-((5-fluoro-2-oxoindolin-3-ylidene)-methyl)-3,5-dimethyl-1H-pyrrole-4-carboxamido)ethylamino)nicotinamide] are 63 nM, over 60 µM, over 60 µM and 151 nM.
Regarding `Cc1[nH]c(/C=N/N=C2\C(=O)Nc3ccc(F)cc32)c(C)c1C(=O)NCCNc1ccc(C(=O)Nc2ccc(F)cc2N)cn1` [Example 14, N-(2-amino-4-fluorophenyl)-6-(2-(2-(((5-fluoro-2-oxoindolin-3-ylidene)-hydrazono)methyl)-3,5-dimethyl-1H-pyrrole-4-carboxamido)ethylamino)nicotinamide], at Flt3, the half-inhibitory concentration (IC50) was found to be 432 nM. The 50% growth inhibitory concentration (GI50) in the assay on Raji is over 60 µM; in the assay on Ramos it was over 60 µM; in assay [1], over 1000 nM.
`Cc1[nH]c(/C=C2\C(=O)Nc3ccc(F)cc32)c(C)c1C(=O)NCCCNc1ccc(C(=O)Nc2ccc(F)cc2N)cn1` [Example 16, (Z)-N-(2-amino-4-fluorophenyl)-6-(3-(2-((5-fluoro-2-oxoindolin-3-ylidene)-methyl)-3,5-dimethyl-1H-pyrrole-4-carboxamido)propylamino)nicotinamide]: the half-inhibitory concentration (IC50) at Flt3 worked out at 623 nM. Further, the GI50 is over 60 µM with Raji, over 60 µM in the assay on Ramos and 105 nM in assay [1].
